Patent US10392383B2, “3-(1H-benzo[d]imidazol-2-yl)-1H-pyrazolo[4,3-b]pyridines and therapeutic uses thereof” (Samumed, LLC, priority 2015, dated 2019)

Experiments:
[1] = tested on: primary human mesenchymal stem cells (hMSCs); assay: Induction of chondrogenesis in human mesenchymal stem cells (nodule staining with Rhodamine B / Nile Red); type: cell-based; settings: for Emax: TGF-β3 (10 ng/mL) as positive control, read-out: Max. Activity as % TGF-β3 activity; for EC50: concentration required to induce 50% levels of chondrogenesis vs TGF-β3, read-out: Conc (nM) of 50% TGF-β3 activity
How it was run: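 Primary hMSCs (passage 3–6) in incomplete chondrogenic induction medium were exposed 6 days at 37° C to compound (1:3 dilutions, 2700–10 nM in 96-well or 5000–2.2 nM in 384-well; 0.03% DMSO). Nodules stained with Rhodamine B/Nile Red were imaged; area normalized to DMSO wells for EC50, maximal activity and dose at maximum.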

[2] = tested on: IL-6 (THP-1 cells); assay: IL-6 inhibition in LPS-stimulated THP-1 monocytes (HTRF); type: cell-based; settings: Homo sapiens, IL-6 HTRF; for EC50: 500 ng/mL LPS, Table 6; for inhibition at 10 µM: LPS, Table 6, read-out: percent inhibition at 10 μM (given in parentheses for EC50 >10 μM)
How it was run: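 THP-1 cells in 1% FBS pre-incubated 2 h with compound (10-point 1:3 series from 10 μM, 0.1% DMSO), then stimulated with 500 ng/mL LPS for 22 h at 37 °C. IL-6 measured by HTRF 665/620 ratio, normalized to DMSO; EC50 by four-parameter fit, or % inhibition at 10 μM when EC50 >10 μM.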

| SMILES | Emax [1] | EC50 [1] | EC50 [2] | inhibition at 10 µM [2] |
| --- | --- | --- | --- | --- |
| CC(C)Nc1cncc(-c2ccc3[nH]nc(-c4nc5c(-c6cc(F)cc(NCCN(C)C)c6)cccc5[nH]4)c3n2)c1 [Compound 460, N^1-(3-Fluoro-5-(2-(5-(5-(isopropylamino)pyridin-3-yl)-1H-pyrazolo[4,3-b]pyridin-3-yl)-1H-benzo[d]imidazol-4-yl)phenyl)-N^2,N^2-dimethylethane-1,2-diamine] | 62% | 10 nM | 975 nM | – |
| CCCCC(=O)Nc1cncc(-c2ccc3[nH]nc(-c4nc5c(-c6cc(F)cc(NCCN(C)C)c6)cccc5[nH]4)c3n2)c1 [Compound 467, N-(5-(3-(4-(3-((2-(Dimethylamino)ethyl)amino)-5-fluorophenyl)-1H-benzo [d]imidazol-2-yl)-1H-pyrazolo[4,3-b]pyridin-5-yl)pyridin-3-yl)pentanamide] | 36% | – | 1320 nM | – |
| Cc1ccncc1-c1ccc2[nH]nc(-c3nc4c(-c5cc(F)cc(CNS(C)(=O)=O)c5)cccc4[nH]3)c2n1 [Compound 481, N-(3-Fluoro-5-(2-(5-(4-methylpyridin-3-yl)-1H-pyrazolo[4,3-b]pyridin-3-yl)-1H-benzo[d]imidazol-4-yl)benzyl)methanesulfonamide] | 36% | – | 2120 nM | – |
| CCCC(=O)Nc1cncc(-c2ccc3[nH]nc(-c4nc5c(-c6cc(F)cc(CNS(C)(=O)=O)c6)cccc5[nH]4)c3n2)c1 [Compound 493, N-(5-(3-(4-(3-Fluoro-5-(methylsulfonamidomethyl)phenyl)-1H-benzo[d]imidazol-2-yl)-1H-pyrazolo[4,3-b]pyridin-5-yl)pyridin-3-yl)butyramide] | 100% | 900 nM | > 10000 nM | 35.3% |
| Fc1cccc(-c2cccc3[nH]c(-c4n[nH]c5ccc(C6CCNCC6)nc45)nc23)c1 [Compound 505, 3-(4-(3-Fluorophenyl)-1H-benzo[d]imidazol-2-yl)-5-(piperidin-4-yl)-1H-pyrazolo[4,3-b]pyridine] | 46% | – | 4920 nM | – |
| Cn1cc(-c2ccc3[nH]nc(-c4nc5c(-c6cccc(F)c6)cccc5[nH]4)c3n2)cn1 [Compound 508, 3-(4-(3-Fluorophenyl)-1H-benzo[d]imidazol-2-yl)-5-(1-methyl-1H-pyrazol-4-yl)-1H-pyrazolo[4,3-b]pyridine] | 48% | – | > 10000 nM | 0% |
| Cc1ncc(-c2ccc3[nH]nc(-c4nc5c(-c6cccc(F)c6)cccc5[nH]4)c3n2)n1C [Compound 509, 5-(1,2-Dimethyl-1H-imidazol-5-yl)-3-(4-(3-fluorophenyl)-1H-benzo[d]imidazol-2-yl)-1H-pyrazolo[4,3-b]pyridine] | 112% | 10 nM | 788 nM | – |
| NC1CN(c2cncc(-c3ccc4[nH]nc(-c5nc6c(-c7cccc(F)c7)cccc6[nH]5)c4n3)n2)C1 [Compound 510, 1-(6-(3-(4-(3-Fluorophenyl)-1H-benzo[d]imidazol-2-yl)-1H-pyrazolo[4,3-b]pyridin-5-yl)pyrazin-2-yl)azetidin-3-amine] | 53% | 7 nM | 7840 nM | – |
| Fc1cccc(-c2cccc3[nH]c(-c4n[nH]c5ccc(-c6cncc(OC7CCNCC7)c6)nc45)nc23)c1 [Compound 512, 3-(4-(3-Fluorophenyl)-1H-benzo[d]imidazol-2-yl)-5-(5-(piperidin-4-yloxy)pyridin-3-yl)-1H-pyrazolo[4,3-b]pyridine] | 75% | 7 nM | 1520 nM | – |
| CN(C)CCOc1cncc(-c2ccc3[nH]nc(-c4nc5c(-c6cccc(F)c6)cccc5[nH]4)c3n2)c1 [Compound 515, 2-((5-(3-(4-(3-Fluorophenyl)-1H-benzo[d]imidazol-2-yl)-1H-pyrazolo[4,3-b]pyridin-5-yl)pyridin-3-yl)oxy)-N,N-dimethylethan-1-amine] | 55% | 2 nM | 7380 nM | – |
| COc1cncc(-c2ccc3[nH]nc(-c4nc5c(-c6cccc(F)c6)cccc5[nH]4)c3n2)c1 [Compound 516, 3-(4-(3-Fluorophenyl)-1H-benzo[d]imidazol-2-yl)-5-(5-methoxypyridin-3-yl)-1H-pyrazolo[4,3-b]pyridine] | 54% | 2 nM | > 10000 nM | 49.5% |
| Oc1cncc(-c2ccc3[nH]nc(-c4nc5c(-c6cccc(F)c6)cccc5[nH]4)c3n2)c1 [Compound 517, 5-(3-(4-(3-Fluorophenyl)-1H-benzo[d]imidazol-2-yl)-1H-pyrazolo[4,3-b]pyridin-5-yl)pyridin-3-ol] | 45% | – | 9700 nM | – |
